Target: MCH receptor (Homo sapiens, UniProt Q99705)
Assay: High throughput functional screening FLIPR/FDSS6000: inhibition of MCH-evoked intracellular Ca2+ changes
Format: cell-based
Conditions: class by percent of control at 10^-7 M or by IC50; read-out: class
How it was run: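 Seed cells the day before, then load them with Fluo4-AM for one hour at 37° C and wash in HEPES-buffered HBSS, pH 7.4. Add compound for 3 min, then stimulate with 50 nM MCH. Monitor the calcium transient for 290 s.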

IC50 [nM]	Structure (SMILES)
50 to 200	CN(C)c1nc(N[C@H]2CC[C@@H](NC(=O)NC3CCCCC3)CC2)nc2ccccc12 [compound 16, N-cyclohexyl-N′-(cis-4-{[4-(dimethylamino)quinazolin-2-yl]amino}cyclohexyl)urea]
> 200	CN(C)c1nc(N[C@H]2CC[C@@H](NC(=O)Nc3cccc(C#N)c3)CC2)nc2ccccc12 [compound 17]
< 50	CN(C)c1nc(N[C@H]2CC[C@@H](NC(=O)Nc3ccccc3Cl)CC2)nc2ccccc12 [compound 18, N-(2-chlorophenyl)-N′-(cis-4-{[4-(dimethylamino)quinazolin-2-yl]amino}cyclohexyl)urea]
< 50	Cc1cccc(C)c1NC(=O)N[C@H]1CC[C@@H](Nc2nc(N(C)C)c3ccccc3n2)CC1 [compound 19, N-(cis-4-{[4-(dimethylamino)quinazolin-2-yl]amino}cyclohexyl)-N′-(2,6-dimethylphenyl)urea]
> 200	CN(C)c1nc(N[C@H]2CC[C@@H](NC(=O)Nc3ccc(Cl)c(Cl)c3)CC2)nc2ccccc12 [compound 20]
< 50	CN(C)c1nc(N[C@H]2CC[C@@H](NC(=O)Nc3ccc(F)cc3F)CC2)nc2ccccc12 [compound 21, N-(2,4-difluorophenyl)-N′-(cis-4-{[4-(dimethylamino)quinazolin-2-yl]amino}cyclohexyl)urea]
50 to 200	CN(C)c1nc(N[C@H]2CC[C@@H](NC(=O)Nc3ccc(Cl)cc3Cl)CC2)nc2ccccc12 [compound 22, N-(2,4-dichlorophenyl)-N′-(cis-4-{[4-(dimethylamino)quinazolin-2-yl]amino}cyclohexyl)urea]
> 200	CN(C)c1nc(N[C@H]2CC[C@@H](NC(=O)Nc3cc(Cl)cc(Cl)c3)CC2)nc2ccccc12 [compound 23]
> 200	CN(C)c1nc(N[C@H]2CC[C@@H](NC(=O)Nc3cccc(Cl)c3Cl)CC2)nc2ccccc12 [compound 24]
> 200	CN(C)c1nc(N[C@H]2CC[C@@H](NC(=O)Nc3c(F)cccc3F)CC2)nc2ccccc12 [compound 25]
> 200	CN(C)c1nc(N[C@H]2CC[C@@H](NC(=O)Nc3cc(Cl)ccc3Cl)CC2)nc2ccccc12 [compound 26]
< 50	Cc1cccc(NC(=O)N[C@H]2CC[C@@H](Nc3nc(N(C)C)c4ccccc4n3)CC2)c1C [compound 27, N-(cis-4-{[4-(dimethylamino)quinazolin-2-yl]amino}cyclohexyl)-N′-(2,3-dimethylphenyl)urea]
> 200	CCOC(=O)CNC(=O)N[C@H]1CC[C@@H](Nc2nc(N(C)C)c3ccccc3n2)CC1 [compound 28]
< 50	CCOC(=O)c1cccc(NC(=O)N[C@H]2CC[C@@H](Nc3nc(N(C)C)c4ccccc4n3)CC2)c1 [compound 29, ethyl 3-({[(cis-4-{[4-(dimethylamino)quinazolin-2-yl]amino}cyclohexyl)amino]carbonyl}amino)benzoate]
50 to 200	CCOC(=O)c1ccc(NC(=O)N[C@H]2CC[C@@H](Nc3nc(N(C)C)c4ccccc4n3)CC2)cc1 [compound 30, ethyl 4-({[(cis-4-{[4-(dimethylamino)quinazolin-2-yl]amino}cyclohexyl)amino]carbonyl}amino)benzoate]
50 to 200	CCc1ccc(NC(=O)N[C@H]2CC[C@@H](Nc3nc(N(C)C)c4ccccc4n3)CC2)cc1 [compound 31, N-(cis-4-{[4-(dimethylamino)quinazolin-2-yl]amino}cyclohexyl)-N′-(4-ethylphenyl)urea]
> 200	CCNC(=O)N[C@H]1CC[C@@H](Nc2nc(N(C)C)c3ccccc3n2)CC1 [compound 32]
< 50	CCc1cccc(C)c1NC(=O)N[C@H]1CC[C@@H](Nc2nc(N(C)C)c3ccccc3n2)CC1 [compound 33, N-(cis-4-{[4-(dimethylamino)quinazolin-2-yl]amino}cyclohexyl)-N′-(2-ethyl-6-methylphenyl)urea]
< 50	CCOC(=O)C(CC(C)C)NC(=O)NC1CCC(Nc2nc(N(C)C)c3ccccc3n2)CC1 (stereo not drawn) [compound 34, ethyl N-{[(cis-4-{[4-(dimethylamino)quinazolin-2-yl]amino}cyclohexyl)amino]carbonyl}lucinate]
> 200	CN(C)c1nc(N[C@H]2CC[C@@H](NC(=O)Nc3ccc(F)c([N+](=O)[O-])c3)CC2)nc2ccccc12 [compound 35]
< 50	CN(C)c1nc(N[C@H]2CC[C@@H](NC(=O)Nc3ccc(F)cc3)CC2)nc2ccccc12 [compound 36, N-(cis-4-{[4-(dimethylamino)quinazolin-2-yl]amino}cyclohexyl)-N′-(4-fluorophenyl)urea]
> 200	CN(C)c1nc(N[C@H]2CC[C@@H](NC(=O)Nc3cccc(F)c3)CC2)nc2ccccc12 [compound 37]

IC50 [nM]	Structure (SMILES)
> 200	CN(C)c1nc(N[C@H]2CC[C@@H](NC(=O)Nc3ccccc3F)CC2)nc2ccccc12 [compound 38]
> 200	CC(C)c1ccc(NC(=O)N[C@H]2CC[C@@H](Nc3nc(N(C)C)c4ccccc4n3)CC2)cc1 [compound 39]
< 50	C=C(C)c1cccc(C(C)(C)NC(=O)N[C@H]2CC[C@@H](Nc3nc(N(C)C)c4ccccc4n3)CC2)c1 [compound 40, N-(cis-4-{[4-(dimethylamino)quinazolin-2-yl]amino}cyclohexyl)-N′-[1-(3-isopropenylphenyl)-1-methylethyl]urea]
> 200	CC(C)NC(=O)N[C@H]1CC[C@@H](Nc2nc(N(C)C)c3ccccc3n2)CC1 [compound 42]
50 to 200	COc1ccc(NC(=O)N[C@H]2CC[C@@H](Nc3nc(N(C)C)c4ccccc4n3)CC2)cc1 [compound 43, N-(cis-4-{[4-(dimethylamino)quinazolin-2-yl]amino}cyclohexyl)-N′-(4-methoxyphenyl)urea]
> 200	Cc1ccc(NC(=O)N[C@H]2CC[C@@H](Nc3nc(N(C)C)c4ccccc4n3)CC2)c([N+](=O)[O-])c1 [compound 44]
50 to 200	COc1ccccc1NC(=O)N[C@H]1CC[C@@H](Nc2nc(N(C)C)c3ccccc3n2)CC1 [compound 45, N-(cis-4-{[4-(dimethylamino)quinazolin-2-yl]amino}cyclohexyl)-N′-(2-methoxyphenyl)urea]
50 to 200	COc1cccc(NC(=O)N[C@H]2CC[C@@H](Nc3nc(N(C)C)c4ccccc4n3)CC2)c1 [compound 46, N-(cis-4-{[4-(dimethylamino)quinazolin-2-yl]amino}cyclohexyl)-N′-(3-methoxyphenyl)urea]
< 50	CSc1ccc(NC(=O)N[C@H]2CC[C@@H](Nc3nc(N(C)C)c4ccccc4n3)CC2)cc1 [compound 47, N-(cis-4-{[4-(dimethylamino)quinazolin-2-yl]amino}cyclohexyl)-N′-[4-(methylthio)phenyl]urea]
50 to 200	COc1ccc(CNC(=O)N[C@H]2CC[C@@H](Nc3nc(N(C)C)c4ccccc4n3)CC2)cc1 [compound 48, N-(cis-4-{[4-(dimethylamino)quinazolin-2-yl]amino}cyclohexyl)-N′-(4-methoxybenzyl)urea]
> 200	Cc1cccc(CNC(=O)N[C@H]2CC[C@@H](Nc3nc(N(C)C)c4ccccc4n3)CC2)c1 [compound 49]
< 50	CN(C)c1nc(N[C@H]2CC[C@@H](NC(=O)Nc3cccc4ccccc34)CC2)nc2ccccc12 [compound 50, N-(cis-4-{[4-(dimethylamino)quinazolin-2-yl]amino}cyclohexyl)-N′-1-napthylurea]
< 50	CN(C)c1nc(N[C@H]2CC[C@@H](NC(=O)NC3C[C@H]3c3ccccc3)CC2)nc2ccccc12 (stereo partly drawn) [compound 51, N-(cis-4-{[4-(dimethylamino)quinazolin-2-yl]amino}cyclohexyl)-N′-[(2S)-2-phenylcyclopropyl]urea]
50 to 200	CN(C)c1nc(N[C@H]2CC[C@@H](NC(=O)Nc3ccccc3)CC2)nc2ccccc12 [compound 52, N-(cis-4-{[4-(dimethylamino)quinazolin-2-yl]amino}cyclohexyl)-N′-phenylurea]
< 50	CN(C)c1nc(N[C@H]2CC[C@@H](NC(=O)Nc3ccc(Oc4ccccc4)cc3)CC2)nc2ccccc12 [compound 53, N-(cis-4-{[4-(dimethylamino)quinazolin-2-yl]amino}cyclohexyl)-N′-(4-phenoxyphenyl)urea]
< 50	CCCCCNC(=O)N[C@H]1CC[C@@H](Nc2nc(N(C)C)c3ccccc3n2)CC1 [compound 54, N-(cis-4-{[4-(dimethylamino)quinazolin-2-yl]amino}cyclohexyl)-N′-pentylurea]
< 50	CN(C)c1nc(N[C@H]2CC[C@@H](NC(=O)Nc3ccccc3C(F)(F)F)CC2)nc2ccccc12 [compound 55, N-(cis-4-{[4-(dimethylamino)quinazolin-2-yl]amino}cyclohexyl)-N′-[2-(trifluoromethyl)phenyl]urea]
> 200	CN(C)c1nc(N[C@H]2CC[C@@H](NC(=O)Nc3cccc(C(F)(F)F)c3)CC2)nc2ccccc12 [compound 56]
50 to 200	Cc1ccc(NC(=O)N[C@H]2CC[C@@H](Nc3nc(N(C)C)c4ccccc4n3)CC2)cc1 [compound 57, N-(cis-4-{[4-(dimethylamino)quinazolin-2-yl]amino}cyclohexyl)-N′-(4-methylphenyl)urea]
< 50	Cc1cc(C)c(NC(=O)N[C@H]2CC[C@@H](Nc3nc(N(C)C)c4ccccc4n3)CC2)c(C)c1 [compound 58, N-(cis-4-{[4-(dimethylamino)quinazolin-2-yl]amino}cyclohexyl)-N′-mesitylurea]
50 to 200	Cc1cccc(NC(=O)N[C@H]2CC[C@@H](Nc3nc(N(C)C)c4ccccc4n3)CC2)c1 [compound 59, N-(cis-4-{[4-(dimethylamino)quinazolin-2-yl]amino}cyclohexyl)-N′-(3-methylphenyl)urea]
< 50	Cc1ccccc1NC(=O)N[C@H]1CC[C@@H](Nc2nc(N(C)C)c3ccccc3n2)CC1 [compound 60, N-(cis-4-{[4-(dimethylamino)quinazolin-2-yl]amino}cyclohexyl)-N′-(2-methylphenyl)urea]

From patent US20070010671A1, “Novel quinazoline derivatives and methods of treatment related to the use thereof” (priority 2003, published 2007)
